Key:
Zika virus = test: Functional CPE-based assay to measure dose dependent changes in antiviral-drug inhibitory efficacy against Zika virus MR766 in Vero E6 miRFP670 cells. Cells are treated with antiviral candidates that are serially diluted. EC50 is reported via analysis of MTS assay as a readout of CPE. The assay has been performed by KU Leuven.; type: organism-based, Chlorocebus sabaeus, Vero C1008; conditions: Zika virus
dengue virus type 2 = test: Functional assay to measure dose dependent changes in antiviral-drug inhibitory efficacy against Dengue virus type 2 New Guinea C in Vero E6 miRFP670 cells (cotreated with P-gp inhibitor, CP100356). Cells are treated with antiviral candidates that are serially diluted, following infection, cells are fixed. EC50 is reported via analysis of fluorescence intensity using high-content imager. The …; type: organism-based, Chlorocebus sabaeus, Vero C1008; conditions: Dengue virus

Compound | EC50 (Zika virus; Vero C1008) [µM] | EC50 (dengue virus type 2; Vero C1008) [µM] | other results
C=CC[C@H](Nc1ccc(-c2nn[nH]n2)cc1)c1cc(Cl)cc(NC(=O)OCc2ccccc2)c1 | 13.7 | 1.84 | EC90 (Zika virus; Vero C1008, Baseline response 0 %, EC90 CI (lower) 0 uM, EC90 CI (upper) -3.27181e+18 uM, Hill slope 17.95, Maximum measured 103.91 %, Maximum response 100 %, Minimum measured 1.446 %, R squared 0.986): 15.5 µM; EC90 (dengue virus type 2; Vero C1008, Baseline response 0 %, EC90 CI (lower) 0.301 uM, EC90 CI (upper) 0.468 uM, Hill slope -1.382, Maximum measured 87.879 %, Maximum response 100 %, Minimum measured 3.84 %, P-gp concentration 500 nM, R squared 0.99, P-gp inhibitor CP100356): 9.02 µM
CCCNC(=O)[C@H](Nc1cccc(-c2nn[nH]n2)c1)c1cc(Cl)cc(NC(=O)OCc2ccccc2)c1 | > 50 | > 50 | EC90 (Zika virus; Vero C1008, Baseline response 0 %, Hill slope 3.408, Maximum measured 22.38 %, Maximum response 100 %, Minimum measured 1.712 %, R squared 0.919): > 50 µM; EC90 (dengue virus type 2; Vero C1008, Baseline response 0 %, Hill slope 1.238, Maximum measured 113.655 %, Maximum response 100 %, Minimum measured 85.317 %, P-gp concentration 500 nM, R squared 0.426, P-gp inhibitor CP100356): > 50 µM
NCc1cc(/C=C/C(=O)O)cc(NC(=O)c2cc(Cl)cc(NC(=O)OCc3ccccc3)c2)c1 | > 50 | > 50 | EC90 (Zika virus; Vero C1008, Baseline response 0 %, Hill slope -0.386, Maximum measured 1.272 %, Maximum response 100 %, Minimum measured -0.891 %, R squared 0.02): > 50 µM; EC90 (dengue virus type 2; Vero C1008, Maximum measured 167.512 %, Minimum measured 81.46 %, P-gp concentration 500 nM, P-gp inhibitor CP100356): > 50 µM
C=CC[C@H](Nc1cc(Cl)cc(NC(=O)OCc2ccccc2)c1)c1ccc(-c2nn[nH]n2)cc1 | 2.26 | < 0.391 | EC90 (Zika virus; Vero C1008, Baseline response 0 %, EC90 CI (lower) 3.03 uM, EC90 CI (upper) 8.689 uM, Hill slope 2.685, Maximum measured 114.091 %, Maximum response 100 %, Minimum measured 6.468 %, R squared 0.926): 5.13 µM; EC90 (dengue virus type 2; Vero C1008): 0.683 µM
NCc1cccc(NC(=O)c2cc(Cl)cc3c2cnn3CC2CC2)c1 | > 50 | 12.4 | EC90 (Zika virus; Vero C1008, Baseline response 0 %, Hill slope 0.179, Maximum measured 64.548 %, Maximum response 100 %, Minimum measured -3.549 %, R squared 0.025): > 50 µM; EC90 (dengue virus type 2; Vero C1008): > 12.5 µM
CC(C)Oc1ccc(S(=O)(=O)Nc2ccc(Cl)cc2C(=O)O)cc1 | > 50 | 11.1 | EC90 (Zika virus; Vero C1008, Baseline response 0 %, Hill slope 0.349, Maximum measured 6.596 %, Maximum response 100 %, Minimum measured -0.897 %, R squared 0.277): > 50 µM; EC90 (dengue virus type 2; Vero C1008, Baseline response 0 %, Hill slope -49.91, Maximum measured 106.831 %, Maximum response 100 %, Minimum measured 0.108 %, P-gp concentration 500 nM, R squared 0.989, P-gp inhibitor CP100356): 11.6 µM
O=C(Nc1cccc(-c2nnn[nH]2)c1)c1cc(Cl)cc2[nH]ncc12 | > 50 | > 50 | EC90 (Zika virus; Vero C1008, Maximum measured 0.889 %, Minimum measured -1.258 %): > 50 µM; EC90 (dengue virus type 2; Vero C1008, Maximum measured 107.824 %, Minimum measured 101.456 %, P-gp concentration 500 nM, P-gp inhibitor CP100356): > 50 µM
O=C(Nc1cc(Cl)cc(C(=O)Nc2cccc([C@H]3C[C@H]3C(=O)O)c2)c1)OCc1ccccc1 | > 50 | > 50 | EC90 (Zika virus; Vero C1008, Baseline response 0 %, Hill slope 7.946, Maximum measured 10.264 %, Maximum response 100 %, Minimum measured -1.789 %, R squared 0.722): > 50 µM; EC90 (dengue virus type 2; Vero C1008, Maximum measured 111.056 %, Minimum measured 105.114 %, P-gp concentration 500 nM, P-gp inhibitor CP100356): > 50 µM
O=C(Nc1cc(Cl)cc(-c2ccc3[nH]nc(C(=O)O)c3c2)c1)OCc1ccccc1 | > 50 | > 50 | EC90 (Zika virus; Vero C1008, Baseline response 0 %, Hill slope 0.266, Maximum measured 1.773 %, Maximum response 100 %, Minimum measured -0.573 %, R squared 0.018): > 50 µM; EC90 (dengue virus type 2; Vero C1008, Maximum measured 168.4 %, Minimum measured 111.066 %, P-gp concentration 500 nM, P-gp inhibitor CP100356): > 50 µM
O=C(NCC1CC1)c1cc(Cl)ccc1NS(=O)(=O)c1ccc(Oc2ccccc2Cl)cc1 | > 50 | 6.05 | EC90 (Zika virus; Vero C1008, Maximum measured -0.067 %, Minimum measured -1.21 %): > 50 µM; EC90 (dengue virus type 2; Vero C1008, Baseline response 0 %, Hill slope -26.927, Maximum measured 110.675 %, Maximum response 100 %, Minimum measured 0.394 %, P-gp concentration 500 nM, R squared 0.827, P-gp inhibitor CP100356): 6.57 µM
CCOCCNC(=O)c1cc(Cl)ccc1NS(=O)(=O)c1ccc(Oc2ccccc2Cl)cc1 | > 50 | 7.26 | EC90 (Zika virus; Vero C1008, Maximum measured 1.013 %, Minimum measured -2.996 %): > 50 µM; EC90 (dengue virus type 2; Vero C1008, Baseline response 0 %, EC90 CI (lower) 5.297 uM, EC90 CI (upper) 7.186 uM, Hill slope -13.477, Maximum measured 106.241 %, Maximum response 100 %, Minimum measured 0.021 %, P-gp concentration 500 nM, R squared 0.993, P-gp inhibitor CP100356): 8.55 µM
O=C(Nc1cc(Cl)cc([C@H]2C[C@@H]2c2cccc(C3CCNCC3)c2)c1)OCc1ccccc1 | > 50 | 1.94 | EC90 (Zika virus; Vero C1008, Maximum measured 2.266 %, Minimum measured -4.892 %): > 50 µM; EC90 (dengue virus type 2; Vero C1008, Baseline response 0 %, Hill slope -2.737, Maximum measured 87.189 %, Maximum response 100 %, Minimum measured 17.217 %, P-gp concentration 500 nM, R squared 0.653, P-gp inhibitor CP100356): > 3.12 µM
CCNC(=O)Nc1cc(Cl)cc(C(=O)Nc2ccc3c(c2)CNCCO3)c1 | > 50 | > 25 | EC90 (Zika virus; Vero C1008, Baseline response 0 %, Hill slope 2.475, Maximum measured 7.686 %, Maximum response 100 %, Minimum measured -0.684 %, R squared 0.693): > 50 µM; EC90 (dengue virus type 2; Vero C1008, Maximum measured 150.987 %, Minimum measured 108.938 %, P-gp concentration 500 nM, P-gp inhibitor CP100356): > 25 µM
NCc1cccc(NC(=O)c2cc(Cl)cc(C3CC3)c2)c1 | 15.7 | 21.6 | EC90 (Zika virus; Vero C1008, Baseline response 0 %, EC90 CI (lower) 20.759 uM, EC90 CI (upper) 27.074 uM, Hill slope 5.361, Maximum measured 91.947 %, Maximum response 100 %, Minimum measured -3.838 %, R squared 0.99): 23.7 µM; EC90 (dengue virus type 2; Vero C1008): 24.7 µM
NCc1cccc(NC(=O)c2cc(Cl)cc3[nH]ncc23)c1 | > 50 | > 50 | EC90 (Zika virus; Vero C1008, Maximum measured 0.74 %, Minimum measured -1.239 %): > 50 µM; EC90 (dengue virus type 2; Vero C1008, Maximum measured 106.767 %, Minimum measured 104.405 %, P-gp concentration 500 nM, P-gp inhibitor CP100356): > 50 µM
O=C(NC1CCCCC1)c1cc(Cl)ccc1NS(=O)(=O)c1ccc(Oc2ccccc2Cl)cc1 | > 50 | 3.2 | EC90 (Zika virus; Vero C1008, Baseline response 0 %, Hill slope 0.673, Maximum measured 7.428 %, Maximum response 100 %, Minimum measured -1.415 %, R squared 0.499): > 50 µM; EC90 (dengue virus type 2; Vero C1008): 3.72 µM
O=C(Nc1cccc(-c2nnn[nH]2)c1)c1cc(Cl)cc(C2CC2)c1 | > 50 | > 50 | EC90 (Zika virus; Vero C1008, Maximum measured 1.772 %, Minimum measured -2.796 %): > 50 µM; EC90 (dengue virus type 2; Vero C1008, Maximum measured 109.091 %, Minimum measured 105.083 %, P-gp concentration 500 nM, P-gp inhibitor CP100356): > 50 µM
O=C(O)c1cc(Cl)c(F)cc1S(=O)(=O)Nc1ccc(Oc2ccccc2Cl)cc1 | 39.6 | 25.1 | EC90 (Zika virus; Vero C1008, Baseline response 0 %, EC90 CI (lower) 44.524 uM, EC90 CI (upper) 54.445 uM, Hill slope 10.107, Maximum measured 91.318 %, Maximum response 100 %, Minimum measured 0.941 %, R squared 0.971): 49.2 µM; EC90 (dengue virus type 2; Vero C1008, Baseline response 0 %, Hill slope -22.82, Maximum measured 108.329 %, Maximum response 100 %, Minimum measured 0.118 %, P-gp concentration 500 nM, R squared 0.881, P-gp inhibitor CP100356): 27.7 µM
CC(=O)NCc1cccc(NC(=O)c2cc(Cl)cc(NC(=O)OCc3ccccc3)c2)c1 | > 50 | 10.4 | EC90 (Zika virus; Vero C1008, Baseline response 0 %, Hill slope 0.809, Maximum measured 24.23 %, Maximum response 100 %, Minimum measured -4.371 %, R squared 0.519): > 50 µM; EC90 (dengue virus type 2; Vero C1008, Baseline response 0 %, EC90 CI (lower) 4.143 uM, EC90 CI (upper) 6.94 uM, Hill slope -3.293, Maximum measured 105.977 %, Maximum response 100 %, Minimum measured 1.058 %, P-gp concentration 500 nM, R squared 0.979, P-gp inhibitor CP100356): 20.4 µM
NCc1cc(Cl)cc(C(=O)Nc2ccc3c(c2)CNC3)c1 | > 50 | > 50 | EC90 (Zika virus; Vero C1008, Maximum measured 0.38 %, Minimum measured -0.268 %): > 50 µM; EC90 (dengue virus type 2; Vero C1008, Maximum measured 110.007 %, Minimum measured 106.028 %, P-gp concentration 500 nM, P-gp inhibitor CP100356): > 50 µM
O=C(Nc1cc(Cl)cc(C(=O)Nc2ccc3c(c2)CNCC3)c1)OCc1ccccc1 | < 0.391 | 1.52 | EC90 (Zika virus; Vero C1008, Baseline response 0 %, Hill slope -0.286, Maximum measured 50.319 %, Maximum response 100 %, Minimum measured -3.545 %, R squared 0.037): < 0.391 µM; EC90 (dengue virus type 2; Vero C1008): 1.8 µM
